Reference: patent US20100196321A1, “COMPOUNDS” (GLAXOSMITHKLINE LLC, priority 2009, published 2010)

Experiments:
[1] = system: sub-genomic HCV NS3-NS5B replicon of genotype 1b (ET subline) in Huh-7 cells; assay: Replicon Luciferase Cell Based Assay, genotype 1b; parameters: species or system HCV genotype 1b; details: Hepatitis C virus, Huh-7, 48 h, read-out: Genotype 1b (IC50 μM)
Experimental: (§1) A 10 mM stock solution in DMSO of each test compound was further diluted in DMSO in the first row of a 384-well, V-bottom microplate, to give 100 times the top concentration of the required dilution series. Dilutions of compound were prepared in 1:3 serial dilutions from the first row onwards robotically. A robot was also used to transfer 0.5 μL volumes from each dilution well into wells of white 384-well assay plates (Nunc #164610). Control wells received 0.5 μL of DMSO alone. Plates were made in duplicate for measuring HCV replication and cytotoxicity in the replicon cell lines.
(§2) Suspensions were prepared from cultures of Huh-7 cells stably transfected with sub-genomic HCV NS3—NS5B replicons of either genotype 1b (the ET subline described by Pietschmann, T., Lohmann, V., Kaul, A., Krieger, N., Rinck, G., Rutter, G., Strand, D. & Bartenschlager, R., Journal of Virology, 2002, 76, 4008-4021) or genotype 1a linked to a firefly luciferase reporter gene. Monolayers nearing confluency were stripped from growth flasks with versene-trypsin solution and the cells re-suspended in assay medium comprising DMEM (Invitrogen #11965-092) supplemented with 5% v/v foetal calf serum, 1% v/v non-essential amino acids solution, 100 units/ml penicillin, 100 μg/ml streptomycin and 2 mM GlutaMAX-1. 50 μL of suspension containing 5,000 cells of either genotype 1b or genotype 1a luciferase replicon were added to all wells, except medium controls, of the assay plate with a Multidrop Combi (Thermo Scientific Corporation) and the plate incubated for 48 hours at 37° C. in a 5% CO2 atmosphere. A solution of Steady-Glo cytolytic buffer/luciferase substrate (Promega #E2550) was prepared according to the manufacturer's instructions, and 20 μL were added to each well with a Multidrop Combi. To measure cytotoxicity, a solution of CellTiter-Glo Luminescent Cell Viability Assay reagent (Promega #G7573) was prepared according to the manufacturer's instructions, and 20 ul were added to each well with a Multidrop Combi. The plates were then read for luminescence on an Envision Multilabel Reader (Perkin Elmer)
(§3) Potency: The luminescence values from all compound-free wells containing cells were averaged to obtain a positive control value. The mean luminescence value from the compound-free wells that had received no cells was used to provide the negative (background) control value. After the subtraction of the mean background from all values, the readings from wells at each compound concentration were expressed as a percentage of the positive control signal. The quantifiable and specific reduction of luciferase signal in the presence of a drug is a direct measure of replicon inhibition. The BioAssay application and XC50 module were used to plot the curve of percentage inhibition against compound concentration and derive the 50% inhibitory concentration (IC50) for the compound.

[2] = system: sub-genomic HCV NS3-NS5B replicon of genotype 1a in Huh-7 cells; assay: Replicon Luciferase Cell Based Assay, genotype 1a; parameters: species or system HCV genotype 1a; details: Hepatitis C virus, Huh-7, 48 hours
Experimental: as §1, §2, §3

SMILES: COc1ccc2c(O[C@@H]3C[C@H]4C(=O)N[C@]5(C(=O)NS(=O)(=O)C6CC6)C[C@H]5/C=C\CCCCC[C@H](NC(=O)Nc5ccccc5)C(=O)N4C3)cc(-c3nc(C(C)C)cs3)nc2c1C [Example 1, (2R,6S,13aS,14aR,16aS)-N-(cyclopropylsulfonyl)-2-{[8-methyl-2-[4-(1-methylethyl)-1,3-thiazol-2-yl]-7-(methyloxy)-4-quinolinyl]oxy}-5,16-dioxo-6-{[(phenylamino)carbonyl]amino}-1,2,3,6,7,8,9,10,11,13a,14,15,16,16a-tetradecahydrocyclopropa[e]pyrrolo[1,2-a][1,4]diazacyclopentadecine-14a(5H)-carboxamide]
- IC50 [1]: < 0.01 µM
- IC50 [2]: < 0.01 µM

SMILES: COc1ccc2c(O[C@@H]3C[C@H]4C(=O)N[C@]5(C(=O)NS(=O)(=O)C6CC6)C[C@H]5/C=C\CCCCC[C@H](NC(=O)N5CCC(C)(C)C5)C(=O)N4C3)cc(-c3nc(C(C)C)cs3)nc2c1C [Example 36, (2R,6S,13aS,14aR,16aS,Z)-N-(cyclopropylsulfonyl)-6-(3,3-dimethylpyrrolidine-1-carboxamido)-2-(2-(4-isopropylthiazol-2-yl)-7-methoxy-8-methylquinolin-4-yloxy)-5,16-dioxo-1,2,3,5,6,7,8,9,10,11,13a,14,14a,15,16,16a-hexadecahydrocyclopropa[e]pyrrolo[1,2-a][1,4]diazacyclopentadecine-14a-carboxamide]
- IC50 [1]: < 0.01 µM
- IC50 [2]: < 0.01 µM

SMILES: COc1ccc2c(O[C@@H]3C[C@H]4C(=O)N[C@]5(C(=O)NS(=O)(=O)C6CC6)C[C@H]5/C=C\CCCCC[C@H](NC(=O)N5CCC(O)CC5)C(=O)N4C3)cc(-c3nc(C(C)C)cs3)nc2c1C [Example 22, (2R,6S,13aS,14aR,16aS)-N-(cyclopropylsulfonyl)-6-{[(4-hydroxy-1-piperidinyl)carbonyl]amino}-2-{[8-methyl-2-[4-(1-methylethyl)-1,3-thiazol-2-yl]-7-(methyloxy)-4-quinolinyl]oxy}-5,16-dioxo-1,2,3,6,7,8,9,10,11,13a,14,15,16 ,16a-tetradecahydrocyclopropa[e]pyrrolo[1,2-a][1,4]diazacyclopentadecine-14a(5H)-carboxamide]
- IC50 [1]: < 0.01 µM
- IC50 [2]: < 0.01 µM

SMILES: COc1ccc2c(O[C@@H]3C[C@H]4C(=O)N[C@]5(C(=O)NS(=O)(=O)C6CC6)C[C@H]5/C=C\CCCCC[C@H](NC(=O)N5CCCC5)C(=O)N4C3)cc(-c3nc(C(C)C)cs3)nc2c1C [Example 15, (2R,6S,13aS,14aR,16aS)-N-(cyclopropylsulfonyl)-2-{[8-methyl-2-[4-(1-methylethyl)-1,3-thiazol-2-yl]-7-(methyloxy)-4-quinolinyl]oxy}-5,16-dioxo-6-[(1-pyrrolidinylcarbonyl)amino]-1,2,3,6,7,8,9,10,11,13a,14,15,16,16a-tetradecahydrocyclopropa[e]pyrrolo[1,2-a][1,4]diazacyclopentadecine-14a(5H)-carboxamide]
- IC50 [1]: < 0.01 µM
- IC50 [2]: < 0.01 µM

SMILES: COc1ccc2c(O[C@@H]3C[C@H]4C(=O)N[C@]5(C(=O)NS(=O)(=O)C6CC6)C[C@H]5/C=C\CCCCC[C@H](NC(=O)N5CCN(C6CCCC6)CC5)C(=O)N4C3)cc(-c3nc(C(C)C)cs3)nc2c1C [Example 13, (2R,6S,13aS,14aR,16aS)-6-{[(4-cyclopentyl-1-piperazinyl)carbonyl]amino}-N-(cyclopropylsulfonyl)-2-{[8-methyl-2-[4-(1-methylethyl)-1,3-thiazol-2-yl]-7-(methyloxy)-4-quinolinyl]oxy}-5,16-dioxo-1,2,3,6,7,8,9,10,11,13a,14,15,16,16a-tetradecahydrocyclopropa[e]pyrrolo[1,2-a][1,4]diazacyclopentadecine-14a(5H)-carboxamide]
- IC50 [1]: < 0.01 µM
- IC50 [2]: < 0.01 µM

SMILES: COc1ccc2c(O[C@@H]3C[C@H]4C(=O)N[C@]5(C(=O)NS(=O)(=O)C6CC6)C[C@H]5/C=C\CCCCC[C@H](NC(=O)N5CCC(CC(N)=O)CC5)C(=O)N4C3)cc(-c3nc(C(C)C)cs3)nc2c1C [Example 23, (2R,6S,13aS,14aR,16aS)-6-({[4-(2-amino-2-oxoethyl)-1-piperidinyl]carbonyl}amino)-N-(cyclopropylsulfonyl)2-{[8-methyl-2-[4-(1-methylethyl)-1,3-thiazol-2-yl]-7-(methyloxy)-4-quinolinyl]oxy}-5,16-dioxo-1,2,3,6,7,8,9,10,11,13a,14,15,16,16a-tetradecahydrocyclopropa[e]pyrrolo[1,2-a][1,4]diazacyclopentadecine-14a(5H)-carboxamide]
- IC50 [1]: < 0.01 µM
- IC50 [2]: < 0.01 µM

SMILES: CCN(CC)C(=O)N[C@H]1CCCCC/C=C\[C@@H]2C[C@@]2(C(=O)NS(=O)(=O)C2CC2)NC(=O)[C@@H]2C[C@@H](Oc3cc(-c4nc(C5CC5)cs4)nc4c(C)c(OC)ccc34)CN2C1=O [Example 26, (2R,6S,13aS,14aR,16aS,Z)-N-(cyclopropylsulfonyl)-2-(2-(4-cyclopropylthiazol-2-yl)-7-methoxy-8-methylquinolin-4-yloxy)-6-(3,3-diethylureido)-5,16-dioxo-1,2,3,5,6,7,8,9,10,11,13a,14,14a,15,16,16a-hexadecahydrocyclopropa[e]pyrrolo[1,2-a][1,4]diazacyclopentadecine-14a-carboxamide]
- IC50 [1]: < 0.01 µM
- IC50 [2]: < 0.01 µM

SMILES: COc1ccc2c(O[C@@H]3C[C@H]4C(=O)N[C@]5(C(=O)NS(=O)(=O)C6CC6)C[C@H]5/C=C\CCCCC[C@H](NC(=O)N5CCCC5)C(=O)N4C3)cc(-c3nc(C4CC4)cs3)nc2c1C [Example 30, (2R,6S,13a-5,1-aR,16aS,Z)-N-(cyclopropylsulfonyl)-2-(2-(4-cyclopropylthiazol-2-yl)-7-methoxy-8-methylquinolin-4-yloxy)-5,16-dioxo-6-(pyrrolidine-1-carboxamido)-1,2,3,5,6,7,8,9,10,11,13a,14,14a,15,16,16a-hexadecahydrocyclopropa[e]pyrrolo[1,2-a][1,4]diazacyclopentadecine-14a-carboxamide]
- IC50 [1]: < 0.01 µM
- IC50 [2]: < 0.01 µM

SMILES: COc1ccc2c(O[C@@H]3C[C@H]4C(=O)N[C@]5(C(=O)NS(=O)(=O)C6CC6)C[C@H]5/C=C\CCCCC[C@H](NC(=O)N5CCC(C)(C)C5)C(=O)N4C3)cc(-c3nc(C4CC4)cs3)nc2c1C [Example 34, (2R,6S,13a-5,1-aR,16aS,Z)-N-(cyclopropylsulfonyl)-2-(2-(4-cyclopropylthiazol-2-yl)-7-methoxy-8-methylquinolin-4-yloxy)-6-(3,3-dimethylpyrrolidine-1-carboxamido)-5,16-dioxo-1,2,3,5,6,7,8,9,10,11,13a,14,14a,15,16,16a-hexadecahydrocyclopropa[e]pyrrolo[1,2-a][1,4]diazacyclopentadecine-14a-carboxamide]
- IC50 [1]: < 0.01 µM
- IC50 [2]: < 0.01 µM

SMILES: C=C1CCN(C(=O)N[C@H]2CCCCC/C=C\[C@@H]3C[C@@]3(C(=O)NS(=O)(=O)C3CC3)NC(=O)[C@@H]3C[C@@H](Oc4cc(-c5nc(C6CC6)cs5)nc5c(Cl)c(OC)ccc45)CN3C2=O)CC1 [Example 27, (2R,6S,13aS,14aR,16aS,Z)-2-(8-chloro-2(4-cyclopropylthiazol-2-yl)-7-methoxyquinolin-4-yloxy)-N-(cyclopropylsulfonyl)-6-(4-methylenepiperidine-1-carboxamido)-5,16-dioxo-1,2,3,5,6,7,8,9,10,11,13a,14,14a,15,16,16a-hexadecahydrocyclopropa[e]pyrrolo[1,2-a][1,4]diazacyclopentadecine-14a-carboxamide]
- IC50 [1]: < 0.01 µM
- IC50 [2]: < 0.01 µM

SMILES: COc1ccc2c(O[C@@H]3C[C@H]4C(=O)N[C@]5(C(=O)NS(=O)(=O)C6CC6)C[C@H]5/C=C\CCCCC[C@H](NC(=O)N(C)C)C(=O)N4C3)cc(-c3nc(C4CC4)cs3)nc2c1C [Example 6, (2R,6S,13aS,14aR,16aS)-N-(cyclopropylsulfonyl)-2-{[2-(4-cyclopropyl-1,3-thiazol-2-yl)-8-methyl-7-(methyloxy)-4-quinolinyl]oxy}-6-{[(dimethylamino)carbonyl]amino}-5,16-dioxo-1,2,3,6,7,8,9,10,11,13a,14,15,16,16a-tetradecahydrocyclopropa[e]pyrrolo[1,2-a][1,4]diazacyclopentadecine-14a(5H)-carboxamide]
- IC50 [1]: < 0.01 µM
- IC50 [2]: < 0.01 µM
